The test system of one series is muscarinic receptors. It counts as binding, rabbit (New Zealand White). As to conditions: at a concentration of 1.0 × 10^-5 M; 0.1 nM [3H]QNB; 37° C., 60 min; pH 7.4.
Series [1] relates to gastrointestinal tract, biliary tract, ureter and uterus. The settings on record: in vivo; cited from earlier work.
The conditions of series [2]: in vivo; cited from earlier work.

Structures can show the parent of a compound that is named as a salt.

In the case of `CCN(CC)CCSC(=O)c1ccc(C(C)(C)C)cc1` [4-t-butyl-benzoyl-thio-S-(2-diethylaminoethyl)-ester.HCl], the “% inhibition of ^3 H[QNB] binding” value in the series with muscarinic receptors came to 21%.

Take `CCN(CC)CCSC(=O)C(c1ccccc1)c1ccccc1` [Thiphenamil hydrochloride]: the decrease spasm entry in series [1] was “decrease spasm of the gastrointestinal tract, biliary tract, ureter and uterus”. Moreover, in series [2], the atropinic side effects entry is “without producing characteristic atropinic side effects on salivary and sweat glands, GI glands, the eye or the cardiovascular system”.

Source of the values: patent publication US4678780A, “Anti-spasmodic agents having a ring in the main chain” (United Pharmaceuticals, Inc., priority 1986, dated 1987).
